One series addresses KLK7 (Homo sapiens, UniProt P49862). As to the kind of experiment: KLK7 enzyme inhibition assay, fluorogenic substrate Suc-Leu-Leu-Val-Tyr-AMC. It counts as biochemical. The method, boiled down: (§1)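 Enzymes preincubated 15 min with compound (0.01-100 μM, duplicates), then substrate hydrolysis followed 15 min at 37 °C, pH 8.0, ex 355/em 460 nm. KLK5 0.6 nM, 100 μM substrate, 150 mM NaCl, 2% DMSO; KLK7 8 nM, 40 μM substrate, 1 M NaCl, 4% DMSO; KLK14 0.17 nM, 10 μM substrate, 1 M NaCl, 2% DMSO. IC50 from initial rates, with or without Hill fit.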

The target in another series is T1, KLK5 (Homo sapiens, UniProt Q9Y337).
T1 sequence (Q9Y337 23-293): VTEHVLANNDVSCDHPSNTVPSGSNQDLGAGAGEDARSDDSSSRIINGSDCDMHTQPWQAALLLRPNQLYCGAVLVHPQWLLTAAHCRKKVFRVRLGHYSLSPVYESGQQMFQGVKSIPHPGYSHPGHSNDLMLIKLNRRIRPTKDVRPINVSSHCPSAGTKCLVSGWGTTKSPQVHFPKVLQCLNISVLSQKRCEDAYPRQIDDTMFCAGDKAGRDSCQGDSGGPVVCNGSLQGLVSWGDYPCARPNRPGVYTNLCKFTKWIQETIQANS
As to the kind of experiment: KLK5 enzyme inhibition assay, fluorogenic substrate Boc-Val-Pro-Arg-AMC. It counts as biochemical. The following applies: Table A2; 37° C., 15 min of incubation, pH 8; read-out: IC50 (nM) KLK5. The gist of the method:
as §1

The test system of series [1] is total protease activity of transgenic KLK5 mice skin section. As to the kind of experiment: In situ zymography on transgenic KLK5 mice skin section. The format is biochemical. The following applies: 5 μM. The method, then: FIG. 6 illustrates the effect of JFR9 compound (5 μM) efficacy on the total protease activity of transgenic KLK5 mice skin section, by in situ zymography.
The protease activity is shown with a gradient of fluorescence. The fluorescence intensity represents the cleavage efficiency of a casein substrate coupled to a FITC group.
JFR9 efficacy has been assayed on transgenic KLK5 mice skin section by in situ zymography (FIG. 6). These mice overexpress KLK5 and reproduce the phenotypic characteristics of Netherton syndrome.

For the next series, the target named is T2, KLK14 (Homo sapiens, UniProt Q9P0G3).
T2 sequence (Q9P0G3 25-251): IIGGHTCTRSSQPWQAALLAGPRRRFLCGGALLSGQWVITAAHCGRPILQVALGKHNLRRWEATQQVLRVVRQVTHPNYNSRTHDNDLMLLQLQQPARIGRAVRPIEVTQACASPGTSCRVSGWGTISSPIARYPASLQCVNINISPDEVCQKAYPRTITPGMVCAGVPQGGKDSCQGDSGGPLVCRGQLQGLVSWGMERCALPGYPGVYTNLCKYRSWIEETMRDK
As to the kind of experiment: KLK14 enzyme inhibition assay, fluorogenic substrate Boc-Val-Pro-Arg-AMC. The settings on record: Table A2; 37° C., 15 min of incubation, pH 8; read-out: IC50 (nM) KLK14. It counts as biochemical. The method, boiled down:
as §1

In series [2] the test system is normal human keratinocytes. As to the kind of experiment: Neutral red uptake (NRU) cytotoxicity test / cell viability. It counts as cell-based. The settings on record: 48 h, human normal keratinocytes. Details: cytotoxicity, neutral red uptake test (FIG. 5): dose or concentration left out as unconfirmed. From the text: The NRU cytotoxicity assay procedure is a cell survival/viability chemosensitivity assay based on the ability of viable cells to incorporate and bind neutral red (NR), a supravital dye. NR is a weak cationic dye that readily penetrates cell membranes by non-ionic diffusion and accumulates intracellularly in lysosomes. Alterations of the cell surface or the sensitive lysosomal membrane lead to lysosomal fragility and other changes that gradually become irreversible. Such changes caused by the action of xenobiotics result in a decreased uptake and binding of NR. It is thus possible to distinguish between viable, damaged, or dead cells, which is the basis of this assay. After treatment with the small-molecules inhibitors, NR uptake in cells will be measured by spectrophotometry at 540±10 nm.
Keratinocytes from healthy persons or patients with Netherton syndrome are seeded at the density of 4000 cells in 125 μL of medium per well in 96-well plates.
After seeding, cells are incubated for 48 hours in the following experimental conditions: 37° C.±1° C., 90%±5.0% humidity, and 5%±1% CO2/air. This incubation period allows for cell recovery and adherence and progression to exponential growth phase.
Prepare inhibitors solutions 2-fold more concentrated than desired. Add 125 μL of these solutions to the wells without changing or removing the medium (125 μL).
48 h hours after the beginning of the treatment, carefully remove the medium (containing the tested inhibitor) and rinse the cells very carefully with 250 μL pre-warmed PBS.
Add 250 μL NR medium and incubate (37° C.±1° C., 90%±5% humidity, and 5.0%±1% CO2/air) for 3±0.1 h. NR medium is the culture medium containing 33 μg/mL of NR. After incubation, remove the NR medium, and carefully rinse cells with 250 μL pre-warmed PBS.
Measure the absorption (within 60 minutes after adding NR Desorb solution) of the resulting colored solution at 540 nm±10 nm in a microtiter plate reader (spectrophotometer), using the blank as a reference.
A calculation of cell viability expressed as NRU is made for each concentration of the tested inhibitor by using the mean NRU of the three replicate values per each concentration. This value is compared with the mean NRU of all vehicle values. Relative cell viability is then expressed as percent of untreated vehicle control (DMSO).
Normal human keratinocytes were seeded in a 96-well tissue culture plate. At 20% of confluence, molecules were added in the culture medium and incubated for 48 h. Neutral red medium was added to every well for an incubation period of 3 h, then the dye was extracted with acidified ethanol solution. Data (FIGS. 2 and 3) represent the mean cell viability after treatment +/−SD compared to mean viability of cells treated with the vehicle only (DMSO). Data represent the mean of 5 individual experiments.

Chain of KLK7 (P49862 30-253): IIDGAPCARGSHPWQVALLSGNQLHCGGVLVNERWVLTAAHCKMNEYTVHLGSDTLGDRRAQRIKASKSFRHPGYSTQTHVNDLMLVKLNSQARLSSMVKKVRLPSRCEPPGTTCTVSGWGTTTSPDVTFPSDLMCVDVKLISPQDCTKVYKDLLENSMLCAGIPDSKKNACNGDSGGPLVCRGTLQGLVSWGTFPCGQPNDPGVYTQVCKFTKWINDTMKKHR

`O=C(Oc1cccc(Cl)c1)c1cc2cc(CBr)ccc2oc1=O` [JFR9, 3-Chlorophenyl 6-bromomethyl-2-oxo-2H-1-benzopyran-3-carboxylate]: the IC50 at KLK7 (Table A2, 37° C., 15 min of incubation, pH 8, read-out: IC50 (nM) KLK7) came out at 63.7 ± 1.7 nM; at KLK5, 920 ± 70 nM; on KLK14, 2900 ± 100 nM. In addition, the “selective activity against enzyme: KLK7” value at KLK7 (Table B, among KLK5, KLK7 and KLK14) is listed as “KLK7”. Moreover, the “total protease activity of skin section (casein-FITC cleavage)” value in series [1] is recorded as “decreased significantly”. Moreover, the “cytotoxicity, neutral red uptake test (FIG. 5)” value in series [2] is “No noticeable cytotoxicity”.

By IC50 is commonly meant the concentration at which inhibition is half-maximal.
